Results as given in patent publication US20260356830A1, “COMPOUNDS FOR MODULATING RET PROTEIN” (Bristol-Myers Squibb Company, priority 2022, published 2026).

Target: T1, CCDC6-RET (Homo sapiens, UniProt P07949+Q16204+Q96SW2)
T1 construct: CCDC6 (natural N-terminal fusion partner, UniProt Q16204); endogenous in cells; host or cells: TPC-1 (parental, papillary thyroid carcinoma)
Assay: Cellular RET degradation, AlphaLISA, TPC-1 cell line
Format: cell-based
Conditions: for Dmax: TPC1, human, 24 h, read-out: Cell Density TPC-1/CCDC6-RET Ymax %; for DC50: read-out: Cell Density TPC-1/CCDC6-RET DC50, half-maximal degradation concentration, TPC-1 (CCDC6-RET), 24 hrs
Outline: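 Luminescent AlphaLISA read of RET abundance in lysates after 24 h compound exposure (37 °C, 2% FBS DMEM) of CCDC6-RET-bearing TPC-1 cells. % degradation relative to DMSO (high) and media (low) controls, fitted to 4-parameter logistic curve for DC50 and Ymax.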

T1 sequence (Q16204+P07949 fused): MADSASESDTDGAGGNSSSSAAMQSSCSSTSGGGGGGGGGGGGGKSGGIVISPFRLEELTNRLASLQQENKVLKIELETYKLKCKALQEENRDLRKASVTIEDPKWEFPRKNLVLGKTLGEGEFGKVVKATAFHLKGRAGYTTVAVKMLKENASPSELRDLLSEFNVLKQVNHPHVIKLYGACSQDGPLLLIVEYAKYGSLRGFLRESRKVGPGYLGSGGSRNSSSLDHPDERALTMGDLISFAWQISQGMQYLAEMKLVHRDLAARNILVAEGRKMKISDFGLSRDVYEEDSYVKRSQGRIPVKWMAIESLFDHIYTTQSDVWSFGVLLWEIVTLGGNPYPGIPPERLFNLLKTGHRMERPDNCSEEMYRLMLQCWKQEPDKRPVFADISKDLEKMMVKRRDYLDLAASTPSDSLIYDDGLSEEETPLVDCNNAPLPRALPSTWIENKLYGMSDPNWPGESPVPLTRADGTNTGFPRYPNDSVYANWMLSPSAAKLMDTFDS
T1 sequence (Q96SW2 whole entry, the tested form may be a part): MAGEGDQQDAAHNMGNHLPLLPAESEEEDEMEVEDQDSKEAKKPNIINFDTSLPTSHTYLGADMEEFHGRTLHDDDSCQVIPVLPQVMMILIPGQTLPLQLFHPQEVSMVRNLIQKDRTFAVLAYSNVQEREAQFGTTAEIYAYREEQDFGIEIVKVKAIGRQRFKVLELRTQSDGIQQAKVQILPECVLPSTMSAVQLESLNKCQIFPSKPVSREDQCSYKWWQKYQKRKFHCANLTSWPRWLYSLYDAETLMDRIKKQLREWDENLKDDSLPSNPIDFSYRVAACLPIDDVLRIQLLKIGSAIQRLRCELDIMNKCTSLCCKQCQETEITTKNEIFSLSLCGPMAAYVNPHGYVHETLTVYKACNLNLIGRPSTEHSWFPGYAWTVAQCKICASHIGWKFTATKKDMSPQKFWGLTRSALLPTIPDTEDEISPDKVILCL
T1 sequence (Q16531 whole entry partner, the tested form may be a part): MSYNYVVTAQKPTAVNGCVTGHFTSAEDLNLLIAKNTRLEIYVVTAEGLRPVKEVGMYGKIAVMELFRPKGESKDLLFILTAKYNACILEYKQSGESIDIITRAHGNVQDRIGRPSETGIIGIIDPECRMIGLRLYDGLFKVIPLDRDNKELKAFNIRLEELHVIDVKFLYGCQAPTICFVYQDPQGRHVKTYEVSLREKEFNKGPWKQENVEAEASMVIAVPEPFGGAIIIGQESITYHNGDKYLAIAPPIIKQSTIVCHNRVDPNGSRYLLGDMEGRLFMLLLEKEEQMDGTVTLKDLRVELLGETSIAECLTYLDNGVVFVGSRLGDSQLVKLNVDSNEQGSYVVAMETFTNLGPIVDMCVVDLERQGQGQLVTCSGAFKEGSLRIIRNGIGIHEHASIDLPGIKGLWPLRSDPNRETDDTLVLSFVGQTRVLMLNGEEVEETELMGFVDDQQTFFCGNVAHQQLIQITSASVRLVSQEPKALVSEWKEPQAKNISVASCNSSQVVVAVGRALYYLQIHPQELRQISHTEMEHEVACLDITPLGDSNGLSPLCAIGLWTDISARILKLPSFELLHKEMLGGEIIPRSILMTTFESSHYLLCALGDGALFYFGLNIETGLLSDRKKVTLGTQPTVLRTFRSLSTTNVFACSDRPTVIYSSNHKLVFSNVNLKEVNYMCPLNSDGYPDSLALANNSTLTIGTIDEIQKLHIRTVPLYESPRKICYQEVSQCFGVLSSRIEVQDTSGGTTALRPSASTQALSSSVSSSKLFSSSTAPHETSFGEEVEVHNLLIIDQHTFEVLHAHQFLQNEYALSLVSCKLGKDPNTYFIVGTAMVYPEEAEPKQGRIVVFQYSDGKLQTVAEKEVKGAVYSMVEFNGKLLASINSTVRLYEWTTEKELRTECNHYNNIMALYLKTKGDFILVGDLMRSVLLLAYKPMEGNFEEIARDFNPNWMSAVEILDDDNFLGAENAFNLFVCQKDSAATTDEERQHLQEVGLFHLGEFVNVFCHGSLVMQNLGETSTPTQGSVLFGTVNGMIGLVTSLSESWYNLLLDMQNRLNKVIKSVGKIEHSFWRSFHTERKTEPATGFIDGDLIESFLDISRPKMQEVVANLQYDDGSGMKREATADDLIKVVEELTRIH

| Compound | Dmax | DC50 |
| --- | --- | --- |
| CCOc1cc(-c2ccc(N3CCC(CN4CCC5(CC4)CCN(C(=O)CCN4CCC(c6ccc7c(c6)CN(C6CCC(=O)NC6=O)C7=O)CC4)CC5)(NC(=O)c4cc(F)ccc4F)CC3)nc2)c2c(C#N)cnn2c1 (stereo not drawn) [Example 88, N-[1-(5-{3-cyano-6-ethoxypyrazolo[1,5-a]pyridin-4-yl}pyridin-2-yl)-4-{[9-(3-{4-[2-(2,6-dioxopiperidin-3-yl)-1-oxo-2,3-dihydro-1H-isoindol-5-yl]piperidin-1-yl}propanoyl)-3,9-diazaspiro[5.5]undecan-3-yl]methyl}piperidin-4-yl]-2,5-difluorobenzamide] | > 90% | 10 to 100 nM |
| CCOc1cc(-c2ccc(N3CCC(CN4CC5(C4)CN(C(=O)CCN4CCC(c6ccc7c(c6)CN(C6CCC(=O)NC6=O)C7=O)CC4)C5)(NC(=O)c4cc(F)ccc4F)CC3)nc2)c2c(C#N)cnn2c1 (stereo not drawn) [Example 89, N-[1-(5-{3-cyano-6-ethoxypyrazolo[1,5-a]pyridin-4-yl}pyridin-2-yl)-4-{[6-(3-{4-[2-(2,6-dioxopiperidin-3-yl)-1-oxo-2,3-dihydro-1H-isoindol-5-yl]piperidin-1-yl}propanoyl)-2,6-diazaspiro[3.3]heptan-2-yl]methyl}piperidin-4-yl]-2,5-difluorobenzamide] | > 90% | 10 to 100 nM |
| CCOc1cc(-c2ccc(N3CCC(CN4CCN(CCC(=O)N5CCC6(CC5)CCN(c5ccc7c(c5)CN(C5CCC(=O)NC5=O)C7=O)CC6)CC4)(NC(=O)c4cc(F)ccc4F)CC3)nc2)c2c(C#N)cnn2c1 (stereo not drawn) [Example 90, N-[1-(5-{3-cyano-6-ethoxypyrazolo[1,5-a]pyridin-4-yl}pyridin-2-yl)-4-{[4-(3-{9-[2-(2,6-dioxopiperidin-3-yl)-1-oxo-2,3-dihydro-1H-isoindol-5-yl]-3,9-diazaspiro[5.5]undecan-3-yl}-3-oxopropyl)piperazin-1-yl]methyl}piperidin-4-yl]-2,5-difluorobenzamide] | > 90% | 10 to 100 nM |
| CCOc1cc(-c2ccc(N3CCC(CN4CCN(C(=O)CCN5CCC6(CC5)CCN(c5ccc7c(c5)CN(C5CCC(=O)NC5=O)C7=O)CC6)CC4)(NC(=O)c4cc(F)ccc4F)CC3)nc2)c2c(C#N)cnn2c1 (stereo not drawn) [Example 91, N-[1-(5-{3-cyano-6-ethoxypyrazolo[1,5-a]pyridin-4-yl}pyridin-2-yl)-4-{[4-(3-{9-[2-(2,6-dioxopiperidin-3-yl)-1-oxo-2,3-dihydro-1H-isoindol-5-yl]-3,9-diazaspiro[5.5]undecan-3-yl}propanoyl)piperazin-1-yl]methyl}piperidin-4-yl]-2,5-difluorobenzamide] | 60 to 90% | < 2 nM |
| CCOc1cc(-c2ccc(N3CCC(CN4CCN(C(=O)C5CC6(C5)CC(N5CCC(c7ccc8c(c7)CN(C7CCC(=O)NC7=O)C8=O)CC5)C6)CC4)(NC(=O)c4cc(F)ccc4F)CC3)nc2)c2c(C#N)cnn2c1 (stereo not drawn) [Example 92, N-[1-(5-{3-cyano-6-ethoxypyrazolo[1,5-a]pyridin-4-yl}pyridin-2-yl)-4-{[4-(6-{4-[2-(2,6-dioxopiperidin-3-yl)-1-oxo-2,3-dihydro-1H-isoindol-5-yl]piperidin-1-yl}spiro[3.3]heptane-2-carbonyl)piperazin-1-yl]methyl}piperidin-4-yl]-2,5-difluorobenzamide] | > 90% | 2 to 10 nM |
| CCOc1cc(-c2ccc(N3CCC(CN4CCN(C(=O)C5CC6(CC(Nc7ccc8c(N9CCC(=O)NC9=O)nn(C)c8c7)C6)C5)CC4)(NC(=O)c4cc(F)ccc4F)CC3)nc2)c2c(C#N)cnn2c1 (stereo not drawn) [Example 93, N-[1-(5-{3-cyano-6-ethoxypyrazolo[1,5-a]pyridin-4-yl}pyridin-2-yl)-4-{[4-(6-{[3-(2,4-dioxo-1,3-diazinan-1-yl)-1-methyl-1H-indazol-6-yl]amino}spiro[3.3]heptane-2-carbonyl)piperazin-1-yl]methyl}piperidin-4-yl]-2,5-difluorobenzamide] | > 90% | 2 to 10 nM |
| CCOc1cc(-c2ccc(N3CCC(CN4CCN(C5CC6(CC(C(=O)N7CCN(c8ccc9c(c8)CN(C8CCC(=O)NC8=O)C9=O)CC7)C6)C5)CC4)(NC(=O)c4cc(F)ccc4F)CC3)nc2)c2c(C#N)cnn2c1 (stereo not drawn) [Example 94, N-[1-(5-{3-cyano-6-ethoxypyrazolo[1,5-a]pyridin-4-yl}pyridin-2-yl)-4-{[4-(6-{4-[2-(2,6-dioxopiperidin-3-yl)-1-oxo-2,3-dihydro-1H-isoindol-5-yl]piperazine-1-carbonyl}spiro[3.3]heptan-2-yl)piperazin-1-yl]methyl}piperidin-4-yl]-2,5-difluorobenzamide] | 60 to 90% | 2 to 10 nM |
| CCOc1cc(-c2ccc(N3CCC(CN4CCN(C5CC6(CC(C(=O)N7CCC(c8ccc9c(c8)CN(C8CCC(=O)NC8=O)C9=O)CC7)C6)C5)CC4)(NC(=O)c4cc(F)ccc4F)CC3)nc2)c2c(C#N)cnn2c1 (stereo not drawn) [Example 95, N-[1-(5-{3-cyano-6-ethoxypyrazolo[1,5-a]pyridin-4-yl}pyridin-2-yl)-4-{[4-(6-{4-[2-(2,6-dioxopiperidin-3-yl)-1-oxo-2,3-dihydro-1H-isoindol-5-yl]piperidine-1-carbonyl}spiro[3.3]heptan-2-yl)piperazin-1-yl]methyl}piperidin-4-yl]-2,5-difluorobenzamide] | 60 to 90% | 2 to 10 nM |
| CCOc1cc(-c2ccc(N3CCC(CN4CCC5(CC4)CCN(C(=O)c4ccc6c(c4)C(=O)N(C4CCC(=O)NC4=O)C6)CC5)(NC(=O)c4cc(F)ccc4F)CC3)nc2)c2c(C#N)cnn2c1 (stereo not drawn) [Example 96, N-[1-(5-{3-cyano-6-ethoxypyrazolo[1,5-a]pyridin-4-yl}pyridin-2-yl)-4-({9-[2-(2,6-dioxopiperidin-3-yl)-3-oxo-2,3-dihydro-1H-isoindole-5-carbonyl]-3,9-diazaspiro[5.5]undecan-3-yl}methyl)piperidin-4-yl]-2,5-difluorobenzamide] | 60 to 90% | 10 to 100 nM |
| CCOc1cc(-c2ccc(N3CCC(CN4CC5(C4)CN(C(=O)COc4ccc6c(c4)CN(C4CCC(=O)NC4=O)C6=O)C5)(NC(=O)c4cc(F)ccc4F)CC3)nc2)c2c(C#N)cnn2c1 (stereo not drawn) [Example 97, N-[1-(5-{3-cyano-6-ethoxypyrazolo[1,5-a]pyridin-4-yl}pyridin-2-yl)-4-{[6-(2-{[2-(2,6-dioxopiperidin-3-yl)-1-oxo-2,3-dihydro-1H-isoindol-5-yl]oxy}acetyl)-2,6-diazaspiro[3.3]heptan-2-yl]methyl}piperidin-4-yl]-2,5-difluorobenzamide] | 60 to 90% | 2 to 10 nM |
| CCOc1cc(-c2ccc(N3CCC(CN4CCC5(CC4)CCN(C(=O)Cc4ccc6c(c4)CN(C4CCC(=O)NC4=O)C6=O)CC5)(NC(=O)c4cc(F)ccc4F)CC3)nc2)c2c(C#N)cnn2c1 (stereo not drawn) [Example 98, N-[1-(5-{3-cyano-6-ethoxypyrazolo[1,5-a]pyridin-4-yl}pyridin-2-yl)-4-[(9-{2-[2-(2,6-dioxopiperidin-3-yl)-1-oxo-2,3-dihydro-1H-isoindol-5-yl]acetyl}-3,9-diazaspiro[5.5]undecan-3-yl)methyl]piperidin-4-yl]-2,5-difluorobenzamide] | > 90% | 2 to 10 nM |
| CCOc1cc(-c2ccc(N3CCC(CN4CCC5(CC4)CCN(C(=O)COc4ccc6c(c4)CN(C4CCC(=O)NC4=O)C6=O)CC5)(NC(=O)c4cc(F)ccc4F)CC3)nc2)c2c(C#N)cnn2c1 (stereo not drawn) [Example 99, N-[1-(5-{3-cyano-6-ethoxypyrazolo[1,5-a]pyridin-4-yl}pyridin-2-yl)-4-{[9-(2-{[2-(2,6-dioxopiperidin-3-yl)-1-oxo-2,3-dihydro-1H-isoindol-5-yl]oxy}acetyl)-3,9-diazaspiro[5.5]undecan-3-yl]methyl}piperidin-4-yl]-2,5-difluorobenzamide] | 60 to 90% | < 2 nM |
| CCOc1cc(-c2ccc(N3CCC(CN4CCN(CCOCCC(=O)N5CCN(c6ccc7c(c6)CN(C6CCC(=O)NC6=O)C7=O)CC5)CC4)(NC(=O)c4cc(F)ccc4F)CC3)nc2)c2c(C#N)cnn2c1 (stereo not drawn) [Example 100, N-[1-(5-{3-cyano-6-ethoxypyrazolo[1,5-a]pyridin-4-yl}pyridin-2-yl)-4-({4-[2-(3-{4-[2-(2,6-dioxopiperidin-3-yl)-1-oxo-2,3-dihydro-1H-isoindol-5-yl]piperazin-1-yl}-3-oxopropoxy)ethyl]piperazin-1-yl}methyl)piperidin-4-yl]-2,5-difluorobenzamide] | > 90% | 2 to 10 nM |
| CCOc1cc(-c2ccc(N3CCC(CN4CCN(CCOCCC(=O)N5CCC(c6ccc7c(c6)C(=O)N(C6CCC(=O)NC6=O)C7)CC5)CC4)(NC(=O)c4cc(F)ccc4F)CC3)nc2)c2c(C#N)cnn2c1 (stereo not drawn) [Example 101, N-[1-(5-{3-cyano-6-ethoxypyrazolo[1,5-a]pyridin-4-yl}pyridin-2-yl)-4-({4-[2-(3-{4-[2-(2,6-dioxopiperidin-3-yl)-3-oxo-2,3-dihydro-1H-isoindol-5-yl]piperidin-1-yl}-3-oxopropoxy)ethyl]piperazin-1-yl}methyl)piperidin-4-yl]-2,5-difluorobenzamide] | > 90% | 10 to 100 nM |
| CCOc1cc(-c2ccc(N3CCC(CN4CCN(CCOCCC(=O)N5CCN(c6ccc7c(c6)C(=O)N(C6CCC(=O)NC6=O)C7)CC5)CC4)(NC(=O)c4cc(F)ccc4F)CC3)nc2)c2c(C#N)cnn2c1 (stereo not drawn) [Example 103, N-[1-(5-{3-cyano-6-ethoxypyrazolo[1,5-a]pyridin-4-yl}pyridin-2-yl)-4-({4-[2-(3-{4-[2-(2,6-dioxopiperidin-3-yl)-3-oxo-2,3-dihydro-1H-isoindol-5-yl]piperazin-1-yl}-3-oxopropoxy)ethyl]piperazin-1-yl}methyl)piperidin-4-yl]-2,5-difluorobenzamide] | > 90% | 10 to 100 nM |
